Assays:
human GPR139 receptor [1] = target: T1, human GPR139 receptor (Homo sapiens, UniProt Q6DWJ6); assay: GPR139 Competition Binding (membrane-based, tritium-labeled ligand); conditions: T-REx-CHO membranes with human GPR139; 6.5 nM tritium-labeled ligand; 11-point curve, 30 μM maximum concentration; read-out: GPR139 Binding Affinity (pKi) (converted)
T1 construct: expressed in transfected cells; host or cells: T-REx-CHO (Thermo Fisher Scientific), doxycycline-induced
T1 sequence (Q6DWJ6 1-353): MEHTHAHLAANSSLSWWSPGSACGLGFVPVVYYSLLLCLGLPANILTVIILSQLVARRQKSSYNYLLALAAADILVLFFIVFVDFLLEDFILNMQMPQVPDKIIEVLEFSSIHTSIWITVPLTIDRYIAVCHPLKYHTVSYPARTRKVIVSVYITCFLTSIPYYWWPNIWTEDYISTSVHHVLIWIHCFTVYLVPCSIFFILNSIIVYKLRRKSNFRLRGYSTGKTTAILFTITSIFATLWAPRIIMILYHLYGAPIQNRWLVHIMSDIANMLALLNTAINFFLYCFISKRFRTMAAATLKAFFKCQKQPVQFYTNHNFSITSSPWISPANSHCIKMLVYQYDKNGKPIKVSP
Outline: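 Membranes came from doxycycline-induced T-REx-CHO cells expressing human GPR139. They were incubated 20 min at room temperature with 6.5 nM tritiated ligand and compound (11 points, top 30 μM) in HEPES pH 7.3 buffer with MgCl2/CaCl2. Filter-bound counts gave Ki by four-parameter fit, reported as pKi.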

human GPR139 receptor [2] = target: T1, human GPR139 receptor; assay: Measurement of GPR139 Activation Via Calcium Signaling (FLIPR, T-REx-CHO cells); format: cell-based; conditions: T-REx-CHO cells stably expressing human GPR139, 11-point dose response, 10 μM maximum concentration, read-out: GPR139 Potency (pEC50) (converted)
Outline: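 T-REx-CHO cells stably carrying human GPR139 under tetracycline control, induced with 2 μg/mL doxycycline for 17 h at 37 °C, loaded 40 min with Calcium 5 dye plus probenecid in HBSS/HEPES pH 7.4. Agonist added as 11-point series (10 μM top); fluorescence read 1 min; pEC50 from four-parameter fit.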

Row | Structure (SMILES) | Ki (human GPR139 receptor [1]) | EC50 (human GPR139 receptor [2])
1 | Cc1ccc([C@H](C)NC(=O)Cn2ncc3c(C4CC4)nn(C)c3c2=O)cc1 [Example 149, (S)-2-(3-cyclopropyl-1-methyl-7-oxo-1,7-dihydro-6H-pyrazolo[3,4-d]pyridazin-6-yl)-N-(1-(p-tolyl)ethyl)acetamide] | 219 nM | 26.3 nM
2 | Cc1nn(C2CC2)c2cnn(CC(=O)N[C@@H](C)c3ccc(Cl)cc3F)c(=O)c12 [Example 24, (S)—N-(1-(4-chloro-2-fluorophenyl)ethyl)-2-(1-cyclopropyl-3-methyl-4-oxo-1,4-dihydro-5H-pyrazolo[3,4-d]pyridazin-5-yl)acetamide] | 97.7 nM | 46.8 nM
3 | Cc1cc(C)c([C@H](C)NC(=O)Cn2ncc3c(c(C)cn3C3CC3)c2=O)c(C)c1 [Example 64, (S)-2-(1-cyclopropyl-3-methyl-4-oxo-1,4-dihydro-5H-pyrrolo[2,3-d]pyridazin-5-yl)-N-(1-mesitylethyl)acetamide] | 2.09 nM | 120 nM
4 | CC(C)c1nn(CC(=O)N[C@@H](C)c2ccc(OC(F)(F)F)cc2)c(=O)c2c1cnn2-c1ccccc1 [Example 7, (S)-2-(4-isopropyl-7-oxo-1-phenyl-1,7-dihydro-6H-pyrazolo[3,4-d]pyridazin-6-yl)-N-(1-(4-(trifluoromethoxy)phenyl)ethyl)acetamide] | 162 nM | ≥ 10000 nM
5 | Cc1nn(CC(=O)N[C@@H](C)c2ccc(C(F)(F)F)cn2)c(=O)c2ncn(C)c12 [Example 137, (S)-2-(1,7-dimethyl-4-oxo-1,4-dihydro-5H-imidazo[4,5-d]pyridazin-5-yl)-N-(1-(5-(trifluoromethyl)pyridin-2-yl)ethyl)acetamide] | 30200 nM | 2630 nM
6 | Cc1ccc([C@H](C)NC(=O)Cn2nc(C)c3c(c(C)nn3C(C)C)c2=O)cc1 [Example 55, (S)-2-(1-isopropyl-3,7-dimethyl-4-oxo-1,4-dihydro-5H-pyrazolo[3,4-d]pyridazin-5-yl)-N-(1-(p-tolyl)ethyl)acetamide] | 380 nM | 83.2 nM
7 | Cc1ccc([C@H](C)NC(=O)Cn2nc(C)c3c(C)nn(C4CC4)c3c2=O)cc1F [Example 68, (S)-2-(1-cyclopropyl-3,4-dimethyl-7-oxo-1,7-dihydro-6H-pyrazolo[3,4-d]pyridazin-6-yl)-N-(1-(3-fluoro-4-methylphenyl)ethyl)acetamide] | 0.347 nM | 69.2 nM
8 | Cc1ccc([C@H](C)NC(=O)Cn2nc(C(C)C)c3cnn(C(C)(C)C)c3c2=O)cc1 [Example 11, (S)-2-(1-(tert-butyl)-4-isopropyl-7-oxo-1,7-dihydro-6H-pyrazolo[3,4-d]pyridazin-6-yl)-N-(1-(p-tolyl)ethyl)acetamide] | 107 nM | 2750 nM
9 | Cc1nn(C(C)C)c2c(=O)n(CC(=O)N[C@@H](C)c3ccc(C(F)(F)F)cn3)ncc12 [Example 103, (S)-2-(1-isopropyl-3-methyl-7-oxo-1,7-dihydro-6H-pyrazolo[3,4-d]pyridazin-6-yl)-N-(1-(5-(trifluoromethyl)pyridin-2-yl)ethyl)acetamide] | 10000 nM | 219 nM
10 | Cc1ccc([C@H](C)NC(=O)Cn2nc(C)c3c(c(C)nn3C(C)C)c2=O)c(F)c1 [Example 54, (S)—N-(1-(2-fluoro-4-methylphenyl)ethyl)-2-(1-isopropyl-3,7-dimethyl-4-oxo-1,4-dihydro-5H-pyrazolo[3,4-d]pyridazin-5-yl)acetamide] | 87.1 nM | 107 nM
11 | COc1ccc([C@H](C)NC(=O)Cn2ncc3c(c(C)nn3C3CC3)c2=O)cc1F [Example 129, (S)-2-(1-cyclopropyl-3-methyl-4-oxo-1,4-dihydro-5H-pyrazolo[3,4-d]pyridazin-5-yl)-N-(1-(3-fluoro-4-methoxyphenyl)ethyl)acetamide] | 724 nM | 53.7 nM
12 | Cc1nn(C2CC2)c2cnn(CC(=O)N[C@@H](C)c3cc(F)cc(F)c3)c(=O)c12 [Example 135, (S)-2-(1-cyclopropyl-3-methyl-4-oxo-1,4-dihydro-5H-pyrazolo[3,4-d]pyridazin-5-yl)-N-(1-(3,5-difluorophenyl)ethyl)acetamide] | 132 nM | 14.1 nM
13 | Cc1nn(CC(=O)N[C@@H](C)c2ccc(F)cc2Cl)c(=O)c2c1c(C)nn2C1CC1 [Example 71, (S)—N-(1-(2-chloro-4-fluorophenyl)ethyl)-2-(1-cyclopropyl-3,4-dimethyl-7-oxo-1,7-dihydro-6H-pyrazolo[3,4-d]pyridazin-6-yl)acetamide] | 0.398 nM | 93.3 nM
14 | Cc1cn(C2CC2)c2cnn(CC(=O)N[C@@H](C)c3ccc(F)cc3Cl)c(=O)c12 [Example 66, (S)—N-(1-(2-chloro-4-fluorophenyl)ethyl)-2-(1-cyclopropyl-3-methyl-4-oxo-1,4-dihydro-5H-pyrrolo[2,3-d]pyridazin-5-yl)acetamide] | 0.794 nM | 79.4 nM
15 | Cc1ccc([C@H](C)NC(=O)Cn2ncc3c(C4CC4)nn(C)c3c2=O)c(F)c1 [Example 152, (S)-2-(3-cyclopropyl-1-methyl-7-oxo-1,7-dihydro-6H-pyrazolo[3,4-d]pyridazin-6-yl)-N-(1-(2-fluoro-4-methylphenyl)ethyl)acetamide] | 110 nM | 28.8 nM

The remaining lines, values ahead:

Row | Ki (human GPR139 receptor [1]) | EC50 (human GPR139 receptor [2]) | Structure (SMILES)
16 | 3470 nM | 63.1 nM | Cc1nn(CC(=O)N[C@@H](C)c2ccc(OC(F)(F)F)cc2)c(=O)c2cnn(C)c12 [Example 73, (S)-2-(1,7-dimethyl-4-oxo-1,4-dihydro-5H-pyrazolo[3,4-d]pyridazin-5-yl)-N-(1-(4-(trifluoromethoxy)phenyl)ethyl)acetamide]
17 | 380 nM | 43.7 nM | [2H]C([2H])([2H])c1ccc([C@H](C)NC(=O)Cn2ncc3c(c(C)nn3C(C)C)c2=O)cc1 [Example 168, (S)-2-(1-isopropyl-3-methyl-4-oxo-1,4-dihydro-5H-pyrazolo[3,4-d]pyridazin-5-yl)-N-(1-(4-(Methyl-d3)phenyl)ethyl)acetamide]
18 | 178 nM | 151 nM | Cc1ccc([C@H](C)NC(=O)Cn2nc(C)c3c(c(C)nn3C)c2=O)cc1 [Example 113, (S)—N-(1-(p-tolyl)ethyl)-2-(1,3,7-trimethyl-4-oxo-1,4-dihydro-5H-pyrazolo[3,4-d]pyridazin-5-yl)acetamide]
19 | 178 nM | 87.1 nM | Cc1nn(C2CCC2)c2cnn(CC(=O)N[C@@H](C)c3ccc(C(F)(F)F)cc3)c(=O)c12 [Example 155, (S)-2-(1-cyclobutyl-3-methyl-4-oxo-1,4-dihydro-5H-pyrazolo[3,4-d]pyridazin-5-yl)-N-(1-(4-(trifluoromethyl)phenyl)ethyl)acetamide]
20 | 135 nM | 32.4 nM | Cc1ccc([C@H](C)NC(=O)Cn2ncc3c(c(C(C)C)nn3C)c2=O)cc1 [Example 51, (S)-2-(3-isopropyl-1-methyl-4-oxo-1,4-dihydro-5H-pyrazolo[3,4-d]pyridazin-5-yl)-N-(1-(p-tolyl)ethyl)acetamide]
21 | 2450 nM | 93.3 nM | Cc1ccc([C@H](C)NC(=O)Cn2nc(C)c3c(cnn3C)c2=O)cc1 [Example 74, (S)-2-(1,7-dimethyl-4-oxo-1,4-dihydro-5H-pyrazolo[3,4-d]pyridazin-5-yl)-N-(1-(p-tolyl)ethyl)acetamide]
22 | 355 nM | 26.3 nM | Cc1nn(C)c2cnn(CC(=O)N[C@@H](C)c3ccc(C(F)(F)F)cc3)c(=O)c12 [Example 37, (S)-2-(1,3-dimethyl-4-oxo-1,4-dihydro-5H-pyrazolo[3,4-d]pyridazin-5-yl)-N-(1-(4-(trifluoromethyl)phenyl)ethyl)acetamide]
23 | 204 nM | 67.6 nM | CC(C)c1nn(C)c2cnn(CC(=O)N[C@@H](C)c3ccc(C(F)(F)F)cc3)c(=O)c12 [Example 52, (S)-2-(3-isopropyl-1-methyl-4-oxo-1,4-dihydro-5H-pyrazolo-[3,4-d]pyridazin-5-yl)-N-(1-(4-(trifluoromethyl)phenyl)ethyl)acetamide]
24 | 30200 nM | 525 nM | Cc1ccc([C@H](C)NC(=O)Cn2ncc3c(ncn3C)c2=O)cc1 [Example 140, (S)-2-(1-methyl-4-oxo-1,4-dihydro-5H-imidazo[4,5-d]pyridazin-5-yl)-N-(1-(p-tolyl)ethyl)acetamide]
25 | 219 nM | 240 nM | Cc1ccc([C@H](C)NC(=O)Cn2ncc3c(C)nn(C)c3c2=O)cc1 [Example 27, (S)-2-(1,3-dimethyl-7-oxo-1,7-dihydro-6H-pyrazolo[3,4-d]pyridazin-6-yl)-N-(1-(p-tolyl)ethyl)acetamide]
26 | 316 nM | 63.1 nM | [2H]C([2H])([2H])c1ccc([C@H](C)NC(=O)Cn2ncc3c(c(C)nn3C3CC3)c2=O)cc1 [Example 167, (S)-2-(1-cyclopropyl-3-methyl-4-oxo-1,4-dihydro-5H-pyrazolo[3,4-d]pyridazin-5-yl)-N-(1-(4-(methyl-d3)phenyl)ethyl)acetamide]
